How the values were obtained:
diamond back moth = assay: Test 4: Effect on Diamond Back Moth; type: in vivo; details: Plutella, third-instar larvae, 24 hours, read-out: Mortality (%)
Procedure: (§1) To a mixture of 20 parts of the compound of the present invention and 20 parts of Sorpol SM-200 (registered tradename for the product supplied by Toho Chemical Industrial Co., Ltd.) was added 60 parts of xylol, and the mixture was suffciently blended. The obtained emulsifiable concentrate was diluted at a predetermined concentration with distilled water, and the obtained dilution was used.
Cabbage leaves were spread in a plastic cup, and 10 third-instar larvae of diamond back moth were set free in the cup.
A chemical dilution having a concentration of 100 or 20 ppm, prepared in the same manner as described in Test 1, was applied from an applicator at a rate of 3 ml per cup.
After scattering of the chemical dilution, the cup was covered, and after 24 hours, the numbers of killed and living larvae were counted and the mortality was calculated. The test was made on three cups and the average value was calculated.

tobacco cutworm [1] = assay: Test 1: Effect on Tobacco Cutworm (leaf immersion), mortality after 24 hours; type: in vivo; details: second-instar larvae, 25° C
Procedure: as §1
An emulsifiable concentrate of a test compound prepared according to the method described in Formulation Example 1 was diluted to a concentration of 100 or 20 ppm. Sweet-potato leaves were immersed in the dilution for 10 seconds, air-dried and placed in a plastic cup having a diameter of 10 cm. Then second-instar larvae of tobacco cutworm were set free in the cup. The cup was allowed to stand still in a thermostat chamber maintained at 25° C. After 24 hours, the numbers of killed and living larvae were counted and the mortality was calculated. The obtained result was expressed by an average value obtained from the mortality calculated in three test cups.

[2] = test system: resistant green rice leafhopper (collected at Nakagawara); assay: Test 3: Effect on Resistant Green Rice Leafhopper (collected at Nakagawara); type: in vivo, Nephotettix cincticeps Uhler (Green rice leafhopper); details: Nephotettix cincticeps, 24 h, read-out: Mortality (%), Green Rice Leafhopper Collected at Nakagawara
Procedure, shortened: (§2)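 Emulsifiable concentrate diluted to 100 or 20 ppm was sprayed, 3 ml per pot, onto hydroponic rice seedlings at 2–3 leaves. After air-drying, 10 female adults of the Nakagawara (resistant) or Chigasaki (sensitive) strain were released per caged pot. Mortality was counted at 24 h and averaged over three pots.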

[3] = Test 9: Toxicity Test (acute oral toxicity, mice); details: mouse, in vivo, po
Procedure: A predetermined amount of a solution or suspension of a test compound in corn oil was orally administered to male mice having a body weight of 19 to 23 g (0.2 ml per 10 g of the body weight). After 7 days, the number of killed mice was counted and the influences on the mice were examined.

[4] = test system: sensitive green rice leafhopper (collected at Chigasaki); assay: whole plant or invertebrate; type: in vivo; details: Nephotettix cincticeps, sensitive female adults, 24 hours, read-out: Mortality (%), Green Rice Leafhopper Collected at Chigasaki
Procedure, shortened: as §2

Test 8: Fish Toxicity = type: in vivo; details: carp, water; concentration at which 1/2 of the test fishes were killed within 48 hours; read-out: Fish Toxicity, TLm48
Procedure: A water tank having a width of 60 cm, a length of 30 cm and a height of 40 cm was filled with water, and 10 yearling carps having a body length of about 5 cm were set free in the tank and adapted to the environment in the tank. A test compound was applied so that the concentration in water was 10, 1 or 0.1 ppm. After 48 hours, the numbers of killed and living carps were counted and the influences on the fishes were examined.

German cockroach = assay: Test 7: Effect on German Cockroach; type: in vivo; details: Blattella germanica, male adults, agonized and killed after 24 hours, read-out: Mortality (%); for mortality at 10 mg/m2: 10 mg/m^2; for mortality at 50 mg/m2: 50 mg/m^2
Procedure: as §1
The bottom face of a high Petri dish having a diameter of 9 cm and a height of 9 cm was treated with 50 or 10 mg/m^2 of a test compound and the dish was air-dried. In order to prevent the adults from escaping from the dish, the inner wall of the dish was treated with butter. Then, 10 male adults of German cockroach were set free in each dish, and the dish was placed in a thermostat chamber maintained at 25° C. After 24 hours, the number of agonized and killed adults was counted. The test was made on two dishes and the average value was calculated.

green peach aphid = assay: Test 5: Effect on Green Peach Aphid; type: in vivo; details: Myzus persicae, 24 h, read-out: Insecticidal Activity
Procedure: as §1
Seedlings (having 3 to 4 leaves) of an eggplant grown on a pot were inoculated with green peach aphids and the insects were allowed to grow. The number of the insects was counted. A chemical dilution having a concentration of 100 ppm, prepared in the same manner as described in Test 1, was applied with a spray gun at a rate of 10 ml per pot. Then, the pot was placed in a glass green house. After 24 hours, the number of living insects was counted and the mortality was calculated.
The test was made on three pots, and the average value was calculated. In Table 6, mark "A" indicates a mortality higher than 95%, mark "B" indicates a mortality of 80 to 95%, mark "C" indicates a mortality of 50 to 80%, and mark "D" indicates a mortality lower than 50%.

tobacco cutworm [5] = assay: Test 2: Tobacco Cutworm Larva Dipping Test, mortality after 24 hours; type: in vivo; details: 24 hours
Procedure: as §1
A dilution having a chemical concentration of 100 or 20 ppm was prepared in the same manner as described in Test 1.
Second-instar and fifth-instar larvae of tobacco cutworm were dipped in the dilution for 5 seconds, and the excessive dilution was removed by a filter paper. Then, the larvae were set free in a plastic cup and an artificial diet was supplied thereto. The cup was allowed to stand still in a thermostat chamber maintained at 25° C. After 24 hours, the numbers of the killed and living larvae were counted and the mortality was calculated. The test was made on three cups and the result was expressed by an average value.

[6] = fifth-instar larvae, read-out: Motality (%), Fifth-Instar Larvae
[7] = second-instar larvae, read-out: Motality (%), Second-Instar Larvae

SMILES	mortality at 20 ppm (diamond back moth) [%]	mortality at 100 ppm (diamond back moth) [%]	mortality at 20 ppm (tobacco cutworm [1]) [%]	mortality at 100 ppm (tobacco cutworm [1]) [%]	mortality at 20 ppm [2] [%]	mortality at 100 ppm [2] [%]	LD50 at 168 h [3] [mg/kg]	mortality at 20 ppm [4] [%]	mortality at 100 ppm [4] [%]	LC50 at 48 h (Test 8: Fish Toxicity) [µg/mL]	mortality at 10 mg/m2 (German cockroach) [%]	mortality at 50 mg/m2 (German cockroach) [%]	mortality at 100 ppm (green peach aphid) [%]	mortality at 20 ppm (tobacco cutworm [5]; [6]) [%]	mortality at 20 ppm (tobacco cutworm [5]; [7]) [%]	mortality at 100 ppm (tobacco cutworm [5]; [6]) [%]	mortality at 100 ppm (tobacco cutworm [5]; [7]) [%]
CC(C)(CSCc1cccc(Oc2ccc(Br)cc2)c1)c1ccc(Cl)cc1 [Compound 37]	100	100	100	100	70	100	> 500	50	100	> 10	–	–	–	–	–	–	–
CC(C)(COCc1cccc(Oc2ccccc2)c1)c1ccc(Br)cc1 [Compound 107, 3-Phenoxybenzyl 2-(4-bromophenyl)-2-methylpropyl ether]	–	–	–	–	100	100	> 500	100	100	> 1	–	–	–	–	–	–	–
CC(C)(COCc1cccc(C(=O)c2ccccc2)c1)c1ccc(Cl)cc1 [Compound 22, 3-Benzoylbenzyl 2-(4-chlorophenyl)-2-methylpropyl ether]	–	–	–	–	80	100	> 500	50	100	> 10	90	100	–	–	–	–	–
CC(C)(COCc1cccc(Oc2ccc(Br)cc2)c1)c1ccc(Cl)c(Cl)c1 [Compound 21, 3-(4-Bromophenoxy)benzyl 2-(3,4-dichlorophenyl)-2-methylpropyl ether]	–	–	–	–	85	100	> 500	60	100	> 10	–	–	–	–	–	–	–
COP(=O)(NC(C)=O)SC (stereo not drawn) [Comparative Compound (h), O,S-dimethyl N-acetylphosphoroamidothiolate, reference compound]	–	–	–	–	–	–	–	–	–	–	–	–	80 to 95	–	–	–	–
CC(C)(COCc1cccc(Oc2ccc(Br)cc2)c1)c1ccc(Cl)cc1 [Compound 4, 3-(4-Bromophenoxy)benzyl 2-(4-chlorophenyl)-2-methylpropyl ether]	100	100	95	100	70	100	> 500	50	100	> 10	–	–	–	70	90	80	90
CC(C)(COCc1cccc(Oc2ccccc2)c1)c1ccc2ccccc2c1 [Compound 31, 3-Phenoxybenzyl 2-(2-naphthyl)-2-methylpropyl ether]	–	–	–	–	100	100	> 500	100	100	> 10	100	100	–	–	–	–	–
CC(C)(COCc1cccc(Oc2ccc(F)cc2)c1)c1cccc(C(F)(F)F)c1 [Compound 23, 3-(4-Fluorophenoxy)benzyl 2-(3-trifluoromethylphenyl)-2-methylpropyl ether]	–	–	80	100	–	–	> 500	–	–	> 1	–	–	–	–	–	–	–
CC(C)(COCc1cccc(Oc2ccc(Br)cc2)c1)c1ccc(OC(F)F)cc1 [Compound 30, 3-(4-Bromophenoxy)benzyl 2-(4-difluoromethoxyphenyl)-2-methylpropyl ether]	70	100	80	100	100	100	> 500	100	100	> 1	–	–	–	–	–	–	–
Cc1ccc(Oc2cccc(COCC(C)(C)c3ccc(Cl)cc3)c2)cc1 [Compound 19, 3-(4-methylphenoxy)benzyl 2-(4-chlorophenyl)-2-methylpropyl ether]	–	–	–	–	100	100	> 500	90	100	> 10	–	–	–	–	–	–	–
C=COc1ccc(C(C)(C)COCc2cccc(Oc3ccccc3)c2)cc1 [Compound 67, 3-Phenoxybenzyl 2-(4-vinyloxyphenyl)-2-methylpropyl ether]	90	100	90	100	–	–	> 500	–	–	–	100	100	–	100	100	100	100
CC1(C)C(C=C(Cl)Cl)C1C(=O)OCc1cccc(Oc2ccccc2)c1 (stereo not drawn) [(i), Permethrin, reference compound]	–	–	–	–	–	–	–	–	–	< 0.005	–	–	–	–	–	–	–
COc1ccc(Oc2cccc(COCC(C)(C)c3ccccc3)c2)cc1 [Compound 13, 3-(4-methoxyphenoxy)benzyl 2-phenyl-2-methylpropyl ether]	–	–	–	–	70	100	> 500	50	100	> 10	–	–	–	–	–	–	–
CC(C)(COCc1cccc(Oc2ccccc2)c1)c1ccc(F)cc1 [Compound 51, 3-Phenoxybenzyl 2-(4-fluorophenyl)-2-methylpropyl ether]	–	–	100	100	100	100	> 500	100	100	> 1	–	–	–	–	–	–	–
CCC(C)(COCc1cccc(Oc2ccc(F)cc2)c1)c1ccc(F)cc1 (stereo not drawn) [Compound 2, 3-(4-fluorophenoxy)benzyl 2-(4-fluorophenyl)-2-methylbutyl ether]	100	100	90	100	95	100	> 500	80	100	> 1	–	–	–	–	–	–	–
CC(C)C(C(=O)OC(C#N)c1cccc(Oc2ccccc2)c1)c1ccc(Cl)cc1 (stereo not drawn) [Comparative Compound (a), reference compound]	–	–	–	–	–	–	260	–	–	< 0.005	–	–	–	–	–	–	–
